Assay results: patent US4843087A (priority 1986, dated 1989)
In brackets after ≈: the same amount, converted by molar mass.

Tests used:
[1] = tested on: human rhinovirus (HRV) serotypes; test: microbe, parasite or virus in culture; format: cell-based; settings: for MIC50: read-out: Rhinovirus MIC50; for IC (MIC80 of serotype panel): read-out: Rhinovirus MIC80
Polio 2 = test: microbe, parasite or virus in culture; format: cell-based, poliovirus; settings: Enterovirus C, HeLa, read-out: Polio 2 MIC

Q: `Cc1cc(CCCCCOc2c(F)cc(C3=NCCO3)cc2F)on1` [159(c), 5-{5-[4-(4,5-Dihydro-2-oxazolyl)-2,6-difluorophenoxy]-pentyl}-3-methylisoxazole] was tested. Which MIC50 [1] did it give?
A: 0.15 µg/mL (≈ 0.428 µM)

Q: And the IC (MIC80 of serotype panel) [1]?
A: 0.66 µg/mL

Q: What about the MIC (Polio 2) of the same compound?
A: 0.12 µg/mL (≈ 0.342 µM)

Q: What does the source list for `Cc1cc(CCCCCOc2c(C)cc(C3=NCCO3)cc2Cl)on1` [154(c), 5-{5-[2-Chloro-4-(4,5-dihydro-2-oxazolyl)-6-methylphenoxy]pentyl}-3-methylisoxazole]?
A: MIC50 [1]: 0.22 µg/mL (≈ 0.606 µM); IC (MIC80 of serotype panel) [1]: 0.33 µg/mL; MIC (Polio 2): 0.8 µg/mL (≈ 2.2 µM)

Q: Which MIC50 [1] does the source give for `Cc1cc(CCCCC[S+]([O-])c2ccc(C3=NCCO3)cc2)on1` (stereo not drawn) [Example 104, 5-{5-[[4-(4,5-Dihydro-2-oxazolyl)phenyl]sulfinyl]pentyl}-3-methylisoxazole] here?
A: 9.85 µg/mL (≈ 28.4 µM)

Q: What about the IC (MIC80 of serotype panel) [1] of the same compound?
A: 12.5 µg/mL

Q: What about the MIC (Polio 2) of the same compound?
A: 12.5 µg/mL (≈ 36.1 µM)

Q: Which MIC50 [1] does the source give for `Cc1cc(CCCCCOc2ccc(C3=NCCO3)cc2C(F)(F)F)on1` [Example 54, 5-{5-[4-(4,5-Dihydro-2-oxazolyl)-2-trifluoromethylphenoxy]pentyl}-3-methylisoxazole] here?
A: 0.08 µg/mL (≈ 0.209 µM)

Q: What about the IC (MIC80 of serotype panel) [1] of the same compound?
A: 0.42 µg/mL

Q: What about the MIC (Polio 2) of the same compound?
A: 1.3 µg/mL (≈ 3.4 µM)

Q: Which results are given for `C=CCc1cc(C2=NCCO2)ccc1OCCCCCc1cc(C)no1` [Example 61, 5-{5-[4-(4,5-Dihydro-2-oxazolyl)-2-(2-propenyl)phenoxy]pentyl}-3-methylisoxazole]?
A: MIC50 [1]: 0.39 µg/mL (≈ 1.1 µM); IC (MIC80 of serotype panel) [1]: 0.75 µg/mL; MIC (Polio 2): 0.54 µg/mL (≈ 1.52 µM)

Q: What does the source list for `Cc1cc(CCCCCSc2ccc(C3=NCCO3)cc2)on1` [103(c), 5-{5-[[4-(4,5-Dihydro-2-oxazolyl)phenyl]thio]pentyl}-3-methylisoxazole]?
A: MIC50 [1]: 0.57 µg/mL (≈ 1.72 µM); IC (MIC80 of serotype panel) [1]: 27.1 µg/mL; MIC (Polio 2): 0.37 µg/mL (≈ 1.12 µM)

Q: With `Cc1cc(CCCCCCCOc2ccc(-c3nc(C)co3)cc2)on1` [Example 135, 5-{7-[4-(4-Methyl-2-oxazolyl)phenoxy]heptyl}-3-methylisoxazole] as the compound, how does the MIC50 [1] read?
A: 0.335 µg/mL (≈ 0.945 µM)

Q: And the IC (MIC80 of serotype panel) [1]?
A: 0.6 µg/mL

Q: What about the MIC (Polio 2) of the same compound?
A: 2.6 µg/mL (≈ 7.34 µM)

Q: Which MIC50 [1] does the source give for `Cc1cc(CCCCCOc2c(Br)cc(C3=NCCO3)cc2Br)on1` [Example 74, 5-{5-[2,6-Dibromo-4-(4,5-dihydro-2-oxazolyl)phenoxy]pentyl}-3-methylisoxazole] here?
A: 0.13 µg/mL (≈ 0.275 µM)

Q: What about the IC (MIC80 of serotype panel) [1] of the same compound?
A: 0.59 µg/mL

Q: What about the MIC (Polio 2) of the same compound?
A: 2 µg/mL (≈ 4.24 µM)

Q: With `Cc1cc(CCCCCOc2c(Cl)cc(C3=NCCO3)cc2Br)on1` [152(d), 5-{5-[2-Bromo-6-chloro-4-(4,5-dihydro-2-oxazolyl)phenoxy]pentyl}-3-methylisoxazole] as the compound, how does the MIC50 [1] read?
A: 0.095 µg/mL (≈ 0.222 µM)

Q: What about the IC (MIC80 of serotype panel) [1] of the same compound?
A: 0.23 µg/mL

Q: And the MIC (Polio 2)?
A: 0.97 µg/mL (≈ 2.27 µM)

Q: For `Cc1cc(CCCCCOc2ccc(C3=NC(C)CO3)c(Cl)c2)on1` (stereo not drawn) [Example 77, 5-{5-[3-Chloro-4-(4,5-dihydro-4-methyl-2-oxazolyl)phenoxy]pentyl}-3-methylisoxazole], which MIC50 [1] is on record?
A: 0.088 µg/mL (≈ 0.243 µM)

Q: What about the IC (MIC80 of serotype panel) [1] of the same compound?
A: 1.47 µg/mL

Q: And the MIC (Polio 2)?
A: 0.05 µg/mL (≈ 0.138 µM)

Q: `Cc1cc(CCCCCOc2ccc(-c3cnco3)cc2)on1` [Example 96(b), 3-Methyl-5-{5[4-(5-oxazolyl)phenoxy]pentyl}isoxazole] was tested. Which MIC50 [1] did it give?
A: 1.4 µg/mL (≈ 4.48 µM)

Q: What about the IC (MIC80 of serotype panel) [1] of the same compound?
A: 2.5 µg/mL

Q: What about the MIC (Polio 2) of the same compound?
A: 0.095 µg/mL (≈ 0.304 µM)

Q: `CN(C)Cc1cc(CCCCCCCOc2ccc(C3=NCCO3)cc2)on1` [Example 136(b), 5-{7-[4-(4,5-Dihydro-2-oxazolyl)phenoxy]heptyl}-3-(dimethylaminomethyl)isoxazole] was tested. Which MIC50 [1] did it give?
A: 0.88 µg/mL (≈ 2.28 µM)

Q: What about the IC (MIC80 of serotype panel) [1] of the same compound?
A: 1.47 µg/mL

Q: What about the MIC (Polio 2) of the same compound?
A: 0.62 µg/mL (≈ 1.61 µM)

Q: Which MIC50 [1] does the source give for `CCOC(=O)c1cc(C2=NCCO2)ccc1OCCCCCc1cc(C)no1` [Example 146, 5-{5-[2-Ethoxycarbonyl-4-(4,5-dihydro-2-oxazolyl)phenoxy]pentyl}-3-methylisoxazole] here?
A: 0.29 µg/mL (≈ 0.75 µM)

Q: What about the IC (MIC80 of serotype panel) [1] of the same compound?
A: 0.55 µg/mL

Q: And the MIC (Polio 2)?
A: 4.2 µg/mL (≈ 10.9 µM)

Q: Which MIC50 [1] does the source give for `COCc1cc(CCCCCOc2c(Cl)cc(C3=NCCO3)cc2Cl)on1` [Example 117, 5-{5-[2,6-Dichloro-4-(4,5-dihydro-2-oxazolyl)phenoxy]pentyl}-3-(methoxymethyl)isoxazole] here?
A: 0.09 µg/mL (≈ 0.218 µM)

Q: And the IC (MIC80 of serotype panel) [1]?
A: 0.31 µg/mL

Q: And the MIC (Polio 2)?
A: 0.39 µg/mL (≈ 0.944 µM)
